# Data from patent US20090291942A1, “IMIDAZO PYRIDINE DERIVATIVES” (priority 2008, published 2009).
# Where a name gives a salt, the structure may show the parent alone.
# Biological target: T1, human GPR4 (Homo sapiens, UniProt P46093)
# T1 construct: expressed in transfected cells
# Assay: Cell-based assay for human GPR4 activity (pH-induced cAMP formation, HTRF)
# Details: HeLa cells stably expressing human GPR4, pH-induced cAMP formation
# In short: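 HeLa cells stably expressing human GPR4, pre-incubated 15 min at room temperature with compound in pH 8 buffer containing 2 mM IBMX. Buffer B added to set the final stimulation pH, then a further 15 min at room temperature; cAMP read by HTRF.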
# T1 sequence (P46093 whole entry): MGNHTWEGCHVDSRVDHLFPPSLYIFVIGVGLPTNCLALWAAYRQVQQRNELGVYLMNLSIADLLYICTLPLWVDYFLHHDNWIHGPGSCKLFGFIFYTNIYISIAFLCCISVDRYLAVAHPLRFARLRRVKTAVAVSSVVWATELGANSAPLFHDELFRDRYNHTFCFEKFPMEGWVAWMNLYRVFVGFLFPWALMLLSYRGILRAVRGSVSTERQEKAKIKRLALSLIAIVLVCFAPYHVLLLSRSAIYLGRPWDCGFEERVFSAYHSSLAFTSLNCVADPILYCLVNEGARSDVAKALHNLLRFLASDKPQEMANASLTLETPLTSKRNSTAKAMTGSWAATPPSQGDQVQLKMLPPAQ
row,IC50 [µM],Compound
1,0.03,"Cc1cc(C)c2nc(C(F)(F)F)n(Cc3ccc(/C=C/CN4CCN(C(C)(C)C)CC4)cc3)c2n1 [Example 92, 3-{4-[(E)-3-(4-tert-Butyl-piperazin-1-yl)-propenyl]-benzyl}-5,7-dimethyl-2-trifluoromethyl-3H-imidazo[4,5-b]pyridine]"
2,0.029,"CCc1nc2c(C)cc(C)nc2n1Cc1ccc(/C=C(\F)CN2CCC(N3CCCCC3)CC2)cc1 [Example 93, 1′-{(Z)-3-[4-(2-Ethyl-5,7-dimethyl-imidazo[4,5-b]pyridin-3-ylmethyl)-phenyl]-2-fluoro-allyl}-[1,4′]bipiperidinyl dihydrochloride]"
3,0.024,"CCc1nc2c(C)cc(C)nc2n1Cc1ccc(/C=C(\F)CN2CCN(C(C)C)CC2)cc1 [Example 94, 2-Ethyl-3-{4-[(Z)-2-fluoro-3-(4-isopropyl-piperazin-1-yl)-propenyl]-benzyl}-5,7-dimethyl-3H-imidazo[4,5-b]pyridine dihydrochloride]"
4,0.031,"CCc1nc2c(C)cc(C)nc2n1Cc1ccc(/C=C(\F)CN2CCN(C(C)(C)C)CC2)cc1 [Example 95, 3-{4-[(Z)-3-(4-tert-Butyl-piperazin-1-yl)-2-fluoro-propenyl]-benzyl}-2-ethyl-5,7-dimethyl-3H-imidazo[4,5-b]pyridine dihydrochloride]"
5,0.994,"CCc1nc2c(C)cc(C)nc2n1Cc1ccc(/C=C/C(=O)N2CCC(N(CC)CC)CC2)cc1 [Example 96, (E)-1-(4-Diethylamino-piperidin-1-yl)-3-[4-(2-ethyl-5,7-dimethyl-imidazo[4,5-b]pyridin-3-ylmethyl)-phenyl]-propenone]"
6,0.445,"CCc1nc2c(C)cc(C)nc2n1Cc1ccc(/C=C/C(=O)N2CCC(N3CCCCC3)CC2)cc1 [Example 97, (E)-1-[1,4′]Bipiperidinyl-1′-yl-3-[4-(2-ethyl-5,7-dimethyl-imidazo[4,5-b]pyridin-3-ylmethyl)-phenyl]-propenone hydrochloride]"
7,0.328,"CCc1nc2c(C)cc(C)nc2n1Cc1ccc(/C=C/C(=O)N2CCC(N3CCOCC3)CC2)cc1 [Example 98, (E)-3-[4-(2-Ethyl-5,7-dimethyl-imidazo[4,5-b]pyridin-3-ylmethyl)-phenyl]-1-(4-morpholin-4-yl-piperidin-1-yl)-propenone]"
8,0.997,"CCc1nc2c(C)cc(C)nc2n1Cc1ccc(C(=O)NCCCCN2CCCC2)cc1 [Example 99, 4-(2-Ethyl-5,7-dimethyl-imidazo[4,5-b]pyridin-3-ylmethyl)-N-(4-pyrrolidin-1-yl-butyl)-benzamide]"
9,0.495,"CCc1nc2c(C)cc(C)nc2n1Cc1ccc(C(=O)NCCCCN2CCCCCC2)cc1 [Example 100, N-(4-Azepan-1-yl-butyl)-4-(2-ethyl-5,7-dimethyl-imidazo[4,5-b]pyridin-3-ylmethyl)-benzamide]"
10,0.364,"CCc1nc2c(C)cc(C)nc2n1Cc1ccc(NC(=O)CCCCN2CCCC2)cc1 [Example 101, 5-Pyrrolidin-1-yl-pentanoic acid [4-(2-ethyl-5,7-dimethyl-imidazo[4,5-b]pyridin-3-ylmethyl)-phenyl]-amide]"
11,0.241,"CCc1nc2c(C)cc(C)nc2n1Cc1ccc(NC(=O)CCCCN2CCCCC2)cc1 [Example 102, 5-Piperidin-1-yl-pentanoic acid [4-(2-ethyl-5,7-dimethyl-imidazo[4,5-b]pyridin-3-ylmethyl)-phenyl]-amide]"
12,0.06,"CCc1nc2c(C)cc(C)nc2n1Cc1ccc(/C=C/CCN2CCN(C(C)(C)C)CC2)cc1 [Example 104, 3-{4-[(E)-4-(4-tert-Butyl-piperazin-1-yl)-but-1-enyl]-benzyl}-2-ethyl-5,7-dimethyl-3H-imidazo[4,5-b]pyridine dihydrochloride]"
13,0.115,"CCc1nc2c(C)cc(C)nc2n1Cc1ccc(/C=C/CCN2CCC(N3CCCCC3)CC2)cc1 [Example 105, 1′-{(E)-4-[4-(2-Ethyl-5,7-dimethyl-imidazo[4,5-b]pyridin-3-ylmethyl)-phenyl]-but-3-enyl}-[1,4′]bipiperidine]"
14,0.098,"CCc1nc2c(C)cc(C)nc2n1Cc1ccc(/C=C/CCN2CCN(C(C)C)CC2)cc1 [Example 106, 2-Ethyl-3-{4-[(E)-4-(4-isopropyl-piperazin-1-yl)-but-1-enyl]-benzyl}-5,7-dimethyl-3H-imidazo[4,5-b]pyridine dihydrochloride]"
15,0.191,"CCc1nc2c(C)cc(C)nc2n1Cc1ccc(/C=C/CCN2CCC(N3CCN(C)CC3)CC2)cc1 [Example 107, 2-Ethyl-5,7-dimethyl-3-{4-[(E)-4-[4-(4-methyl-piperazin-1-yl)-piperidin-1-yl]-but-1-enyl]-benzyl}-3H-imidazo[4,5-b]pyridine]"
16,0.447,"CCc1nc2c(C)cc(C)nc2n1Cc1ccc(/C=C/CCN2CCC(N3CCOCC3)CC2)cc1 [Example 108, 2-Ethyl-5,7-dimethyl-3-{4-[(E)-4-(4-morpholin-4-yl-piperidin-1-yl)-but-1-enyl]-benzyl}-3H-imidazo[4,5-b]pyridine dihydrochloride]"
17,0.37,CCc1nc2c(C)cc(C)nc2n1Cc1ccc(/C=C/CCn2ccnc2)cc1 [Example 109]
18,0.098,"CCc1nc2c(C)cc(C)nc2n1Cc1ccc(CCCCN2CCN(C(C)(C)C)CC2)cc1 [Example 110, 3-{4-[4-(4-tert-Butyl-piperazin-1-yl)-butyl]-benzyl}-2-ethyl-5,7-dimethyl-3H-imidazo[4,5-b]pyridine dihydrochloride]"
19,0.412,"CCc1nc2c(C)cc(C)nc2n1Cc1ccc(CCCCN2CCN(C(C)C)CC2)cc1 [Example 111, 2-Ethyl-3-{4-[4-(4-isopropyl-piperazin-1-yl)-butyl]-benzyl}-5,7-dimethyl-3H-imidazo[4,5-b]pyridine dihydrochloride]"
20,0.059,"CCc1nc2c(C)cc(C)nc2n1Cc1ccc(CCCCN2CCC(N3CCCCC3)CC2)cc1 [Example 112, 1′-{4-[4-(2-Ethyl-5,7-dimethyl-imidazo[4,5-b]pyridin-3-ylmethyl)-phenyl]-butyl}-[1,4′]bipiperidine]"

row,Compound,IC50 [µM]
1,"CCc1nc2c(C)cc(C)nc2n1Cc1ccc(/C=C/CN2CCC(N3CCCCC3)CC2)cc1 [Example 33, 1′-{(E)-3-[4-(2-Ethyl-5,7-dimethyl-imidazo[4,5-b]pyridin-3-ylmethyl)-phenyl]-allyl}-[1,4′]bipiperidinyl dihydrochloride]",0.071

# Tested on: VEGF-induced angiogenesis
# Assay: GPR4 activity in VEGF-induced angiogenesis (angiogenesis growth factor implant model)
# Format: in vivo
# Details: mice, 10 mg/kg (qd) po, chamber tissue weighed on 4th day after implantation
# Experimental: The functional activity of GPR4 was determined in the angiogenesis growth factor implant model. Porous tissue chambers made of perfluoro-alkoxy-Teflon were filled with 0.8% agar and 20 U/ml heparin supplemented with or without 8 μg/ml recombinant human VEGF. The solutions were maintained at 39° C. prior to the filling procedure. Mice were anesthetized using 3% isoflurane inhalation. For subcutaneous implantation, a small skin incision was made at the base of the tail to allow the insertion of an implant trocar. The chamber was implanted under aseptic conditions through the small incision onto the back of the animal. The skin incision was closed by wound clips. On the 4th day after implantation, animals were sacrificed using CO2. Chambers were excised and the vascularized fibrous tissue formed around each implant carefully removed and weighed. Body weight was used to monitor the general condition of the mice. The compounds were applied po at the day of the chamber implantation.
row,Compound,Δ tissue weight [%]
1,"CCc1nc2c(C)cc(C)nc2n1Cc1ccc(/C=C/CN2CCC(N3CCCCC3)CC2)cc1 [Example 33, 1′-{(E)-3-[4-(2-Ethyl-5,7-dimethyl-imidazo[4,5-b]pyridin-3-ylmethyl)-phenyl]-allyl}-[1,4′]bipiperidinyl dihydrochloride]",45

# Tested on: mouse antigen-induced arthritis
# Assay: Mouse antigen-induced arthritis model
# Format: in vivo
# Details: female OFA-1 mice, 50 mg/kg (bid) po from day 0 for 7 days, R/L knee swelling ratio AUC vs control
# Experimental: c) GPR4 Activity in Mouse Antigen-Induced Arthritis Model
# Female OFA-1 mice were sensitized i.d. on the back at two sites to methylated bovine serum albumin (mBSA) homogenize 1:1 with complete Freund's adjuvant on days—21 and —14 (0.1 ml containing 1 mg/ml mBSA). On day 0, the right knee receives 10 μl of 10 mg/ml mBSA in 5% glucose solution (antigen-injected knee), while the left knee receives 10 μl of 5% glucose solution alone (vehicle-injected knee). The diameters of the left and right knees were then measured using callipers immediately after the intra-articular injections and again on days 2, 4, 7, 9, 11 and 14. Vehicle and compounds were applied po starting at day 0 for 7 days. Right knee swelling was evaluated relative to left knee swelling, and the R/L knee swelling ratio plotted against time to give area under the curve (AUC) graphs for control and treatment groups. The percentage inhibition of the individual treatment group AUCs were calculated vs the control group AUC (0% inhibition) using an excel spreadsheet. On day 7, the mice were killed by CO2 inhalation and the right and left knees removed and processed for histological analysis.
row,Compound,Δ swelling ratio [%]
1,"CCc1nc2c(C)cc(C)nc2n1Cc1ccc(/C=C/CN2CCC(N3CCCCC3)CC2)cc1 [Example 33, 1′-{(E)-3-[4-(2-Ethyl-5,7-dimethyl-imidazo[4,5-b]pyridin-3-ylmethyl)-phenyl]-allyl}-[1,4′]bipiperidinyl dihydrochloride]",59
